Measured values taken from PubChem BioAssay AID248 (DTP/NCI, 2004).
Where “and” joins values, the source holds several entries; their conditions need not be identical. Identical values can stand only once. Inconclusive results and toxic doses are left out. No stated cut-off is given here; in the data, active means T/C of 150% or more; inactive means T/C below 125%.

Tested on: L1210 leukemia ip in BDF1 mice, survival T/C
Assay: NCI In Vivo Anticancer Drug Screen. Data for tumor model L1210 Leukemia (intraperitoneal) in B6D2F1 (BDF1) mice
Settings: endpoint: mean survival time, higher = longer survival
In short: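 Read-out is survival time, reported as the treated-group measurement over the vehicle-control measurement.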

[1] = dose: 100.0 mg/kg/injection, schedule: Q04DX002 (ip), vehicle: gum acacia
[2] = dose: 200.0 mg/kg/injection, schedule: Q04DX002 (ip), vehicle: gum acacia
[3] = dose: 400.0 mg/kg/injection, schedule: Q04DX002 (ip), vehicle: gum acacia
[4] = dose: 100.0 mg/kg/injection, schedule: Q01DX009 (ip), vehicle: Klucel (hydroxypropylcellulose) (HPC)
[5] = dose: 100.0 mg/kg/injection, schedule: Q04DX003 (ip), vehicle: Klucel (hydroxypropylcellulose) (HPC)
[6] = dose: 200.0 mg/kg/injection, schedule: Q01DX009 (ip), vehicle: Klucel (hydroxypropylcellulose) (HPC)
[7] = dose: 200.0 mg/kg/injection, schedule: Q04DX003 (ip), vehicle: Klucel (hydroxypropylcellulose) (HPC)
[8] = dose: 400.0 mg/kg/injection, schedule: Q01DX009 (ip), vehicle: Klucel (hydroxypropylcellulose) (HPC)
[9] = dose: 400.0 mg/kg/injection, schedule: Q04DX003 (ip), vehicle: Klucel (hydroxypropylcellulose) (HPC)
[10] = dose: 100.0 mg/kg/injection, schedule: Q01DX009 (ip), vehicle: saline with Tween-80
[11] = dose: 200.0 mg/kg/injection, schedule: Q01DX009 (ip), vehicle: saline with Tween-80
[12] = dose: 400.0 mg/kg/injection, schedule: Q01DX009 (ip), vehicle: saline with Tween-80
[13] = dose: 100.0 mg/kg/injection, schedule: Q04DX003 (ip), vehicle: saline with Tween-80
[14] = dose: 400.0 mg/kg/injection, schedule: Q04DX003 (ip), vehicle: saline with Tween-80
[15] = dose: 25.0 mg/kg/injection, schedule: Q01DX009 (ip), vehicle: Klucel (hydroxypropylcellulose) (HPC)
[16] = dose: 50.0 mg/kg/injection, schedule: Q01DX009 (ip), vehicle: Klucel (hydroxypropylcellulose) (HPC)
[17] = dose: 25.0 mg/kg/injection, schedule: Q04DX003 (ip), vehicle: Klucel (hydroxypropylcellulose) (HPC)
[18] = dose: 50.0 mg/kg/injection, schedule: Q04DX003 (ip), vehicle: Klucel (hydroxypropylcellulose) (HPC)
[19] = dose: 100.0 mg/kg/injection, schedule: Q01DX001 (ip), vehicle: saline
[20] = dose: 200.0 mg/kg/injection, schedule: Q01DX001 (ip), vehicle: saline
[21] = dose: 400.0 mg/kg/injection, schedule: Q01DX001 (ip), vehicle: saline

Measured: T/C

CC(C)CS.[Pb]
inactive: [1] 93 % of control | [2] 93 % of control | [3] 89 % of control

O=C(O)CCNCC(=O)O
inactive: dose: 75.0 mg/kg/injection, schedule: Q01DX001 (ip), vehicle: saline 100 % of control | dose: 150.0 mg/kg/injection, schedule: Q01DX001 (ip), vehicle: saline 100 % of control | dose: 300.0 mg/kg/injection, schedule: Q01DX001 (ip), vehicle: saline 101 % of control

COc1cc(C=Nc2cccc(C(F)(F)F)c2)ccc1O
inactive: [4] 95 % of control | [5] 102 % of control | [6] 86 % of control | [7] 98 % of control | [8] 101 % of control | [9] 104 % of control

N/N=C(\NN)c1ccccc1
inactive: [10] 92 % of control | [11] 91 % of control | [12] 86 % of control

O=C(COC1CCCCC1)OC1CCCCC1
inactive: [10] 95 % of control | [13] 98 % of control | [11] 96 % of control | [12] 94 % of control | [14] 86 % of control

CCS(=O)(=O)c1ncc2cnccn12
inactive: dose: 50.0 mg/kg/injection, schedule: Q01DX009 (ip), vehicle: water 98 % of control | dose: 100.0 mg/kg/injection, schedule: Q01DX009 (ip), vehicle: water 98 % of control and 101 % of control | dose: 100.0 mg/kg/injection, schedule: Q04DX003 (ip), vehicle: water 93 % of control | dose: 200.0 mg/kg/injection, schedule: Q01DX009 (ip), vehicle: water 105 % of control and 110 % of control | dose: 200.0 mg/kg/injection, schedule: Q04DX003 (ip), vehicle: water 95 % of control

CCCCCCCN1CCCC(OC(=O)N(C)C)C1 (stereo not drawn)
inactive: dose: 25.0 mg/kg/injection, schedule: Q04DX002 (ip), vehicle: saline 110 % of control | dose: 50.0 mg/kg/injection, schedule: Q04DX002 (ip), vehicle: saline 103 % of control | dose: 100.0 mg/kg/injection, schedule: Q04DX002 (ip), vehicle: saline 110 % of control and 89 % of control

O=P(CCCc1ccccc1)(CCCc1ccccc1)Oc1cccc(C(F)(F)F)c1
inactive: [13] 90 % of control | dose: 200.0 mg/kg/injection, schedule: Q04DX003 (ip), vehicle: saline with Tween-80 92 % of control | [14] 101 % of control

COC(=O)NC(=S)Nc1ccccc1NC(=S)NC(=O)OC
inactive: [15] 94 % of control | [16] 102 % of control | [4] 105 % of control | [5] 96 % of control | [7] 99 % of control | [9] 87 % of control

C/C=C1\C[C@@H]2C(OC)Nc3cc(O)c(OC)cc3C(=O)N2C1 (stereo partly drawn)
inactive: dose: 0.02 mg/kg/injection, schedule: Q01DX009 (ip), vehicle: saline 98 % of control | dose: 0.04 mg/kg/injection, schedule: Q01DX009 (ip), vehicle: saline 98 % of control | dose: 0.09 mg/kg/injection, schedule: Q01DX009 (ip), vehicle: saline 92 % of control | dose: 0.18 mg/kg/injection, schedule: Q01DX009 (ip), vehicle: saline 101 % of control | dose: 0.18 mg/kg/injection, schedule: Q04DX002 (ip), vehicle: saline 100 % of control | dose: 0.37 mg/kg/injection, schedule: Q04DX002 (ip), vehicle: saline 100 % of control | dose: 0.75 mg/kg/injection, schedule: Q04DX002 (ip), vehicle: saline 110 % of control

NC(N)=Nc1ccc(C(=O)Oc2ccc([N+](=O)[O-])cc2[N+](=O)[O-])cc1
inactive: [17] 96 % of control | [16] 94 % of control | [18] 98 % of control | [4] 94 % of control | [5] 91 % of control

CC/C(=C(/CC)c1ccc(OP(=O)(O)O)cc1)c1ccc(OP(=O)(O)O)cc1
inactive: dose: 100.0 mg/kg/injection, schedule: Q01DX001 (ip), vehicle: carboxymethylcellulose (CMC) 108 % of control | dose: 100.0 mg/kg/injection, schedule: Q01DX001 (ip), vehicle: water 101 % of control | dose: 100.0 mg/kg/injection, schedule: Q04DX003 (sc), vehicle: olive oil, sesame oil, peanut oil 103 % of control | dose: 200.0 mg/kg/injection, schedule: Q01DX001 (ip), vehicle: carboxymethylcellulose (CMC) 95 % of control | dose: 200.0 mg/kg/injection, schedule: Q01DX001 (ip), vehicle: water 97 % of control | dose: 200.0 mg/kg/injection, schedule: Q04DX003 (sc), vehicle: olive oil, sesame oil, peanut oil 102 % of control | dose: 400.0 mg/kg/injection, schedule: Q01DX001 (ip), vehicle: carboxymethylcellulose (CMC) 106 % of control | dose: 400.0 mg/kg/injection, schedule: Q01DX001 (ip), vehicle: water 98 % of control | dose: 400.0 mg/kg/injection, schedule: Q04DX003 (sc), vehicle: olive oil, sesame oil, peanut oil 107 % of control

CN(C)c1ccc(/C=N\NC(=O)CCCC(=O)N/N=C/c2ccc(N(C)C)cc2Cl)c(Cl)c1
inactive: dose: 50.0 mg/kg/injection, schedule: Q01DX001 (ip), vehicle: saline 98 % of control | [19] 98 % of control | [20] 102 % of control | [21] 102 % of control

O=C(OC(CCN1CCCCC1)c1ccccc1)c1ccccc1 (stereo not drawn)
inactive: [13] 100 % of control

COc1cc2c(cc1OC)C(C=C(c1ccccc1)c1ccccc1)N(C)CC2 (stereo not drawn)
inactive: dose: 12.5 mg/kg/injection, schedule: Q01DX009 (ip), vehicle: Klucel (hydroxypropylcellulose) (HPC) 94 % of control | dose: 12.5 mg/kg/injection, schedule: Q04DX003 (ip), vehicle: Klucel (hydroxypropylcellulose) (HPC) 95 % of control | [15] 103 % of control | [17] 101 % of control | [16] 96 % of control | [18] 96 % of control

Brc1c(Br)c(Br)c(Br)c(Br)c1Br
inactive: [19] 93 % of control | [20] 92 % of control | [21] 98 % of control

Oc1ccc(Br)cc1C=NC1CCCCC1
inactive: dose: 100.0 mg/kg/injection, schedule: Q04DX002 (ip), vehicle: other 90 % of control | dose: 200.0 mg/kg/injection, schedule: Q04DX002 (ip), vehicle: other 96 % of control | dose: 400.0 mg/kg/injection, schedule: Q04DX002 (ip), vehicle: other 90 % of control

CCOC(O)C(Cl)(Cl)Cl (stereo not drawn)
inactive: dose: 100.0 mg/kg/injection, schedule: Q01DX009 (ip), vehicle: saline 103 % of control | dose: 100.0 mg/kg/injection, schedule: Q04DX003 (ip), vehicle: saline 100 % of control | dose: 200.0 mg/kg/injection, schedule: Q01DX009 (ip), vehicle: saline 102 % of control | dose: 200.0 mg/kg/injection, schedule: Q04DX003 (ip), vehicle: saline 103 % of control | dose: 400.0 mg/kg/injection, schedule: Q01DX009 (ip), vehicle: saline 92 % of control | dose: 400.0 mg/kg/injection, schedule: Q04DX003 (ip), vehicle: saline 90 % of control

c1ccc(Nc2ncn[nH]2)cc1
inactive: [1] 106 % of control | [2] 103 % of control | [3] 117 % of control

CCCCCCCCCCCCCCCC[N+](C)(C)Cc1ccccc1
inactive: dose: 0.5 mg/kg/injection, schedule: Q04DX002 (ip), vehicle: Klucel (hydroxypropylcellulose) (HPC) 98 % of control | dose: 1.0 mg/kg/injection, schedule: Q04DX002 (ip), vehicle: Klucel (hydroxypropylcellulose) (HPC) 103 % of control | dose: 2.0 mg/kg/injection, schedule: Q04DX002 (ip), vehicle: Klucel (hydroxypropylcellulose) (HPC) 103 % of control

Cc1ccc([N+](=O)[O-])cc1NC(=O)Nc1cccc2ccc(O)cc12
inactive: [4] 95 % of control | [6] 93 % of control | [8] 104 % of control

CC(=O)N=c1sccn1Cc1ccccc1
inactive: dose: 75.0 mg/kg/injection, schedule: Q01DX001 (ip), vehicle: carboxymethylcellulose (CMC) 95 % of control | dose: 150.0 mg/kg/injection, schedule: Q01DX001 (ip), vehicle: carboxymethylcellulose (CMC) 98 % of control | dose: 300.0 mg/kg/injection, schedule: Q01DX001 (ip), vehicle: carboxymethylcellulose (CMC) 98 % of control
